# Key:
# [1] = preservative in nasal sprays and nebulization; cited from earlier work
# cell plasma membrane = assay: Cells exposed to increasing concentration of M-βCD to deplete plasma membrane cholesterol: phospholipid uptake and membrane fusion proteins; assay type: cell-based
# pseudorabies virus = conditions: cited from earlier work
# vaccinia virus = conditions: depletion of plasma membrane cholesterol in host cells; cited from earlier work
# influenza virus = conditions: cited from earlier work
# SARS-COV-2 = conditions: two weeks of receiving the quercetin treatment; cited from earlier work
# [2] = increasing concentration of M-βCD, cholesterol depletion
compound,measurement,setting,value
OCc1ccccc1 [phenylcarbinol],adverse / toxic effects,[1],toxic effects
methyl beta cyclodextrin [M-βCD],uptake of phosphatidyl serine by the cell plasma membrane,cell plasma membrane; [2],loss in the uptake
same,uptake of phosphatidylethanolamine by the cell plasma membrane,cell plasma membrane; [2],remain unchanged
same,membrane fusion proteins syntaxin and SNAP25 at the plasma membrane,cell plasma membrane; loss of cholesterol from the cell plasma membrane,depletion of membrane fusion proteins
same,entry of pseudorabies virus into cells,pseudorabies virus,significantly reduces
same,entry of vaccinia virus into cells,vaccinia virus,significantly reduces
Benzalkonium chloride,adverse / toxic effects,[1],"sino-nasal mucosal injury, nasal squamous metaplasia, ciliary dysmotility, genotoxicity, and other adverse effects"
O=c1c(O)c(-c2ccc(O)c(O)c2)oc2cc(O)cc(O)c12 [quercetin],therapeutic effects against influenza virus,influenza virus,therapeutic effects
same,SARS-COV-2 infected patients cleared of the virus,SARS-COV-2,98%
